According to BindingDB's records for doi:10.1016/j.bmcl.2014.05.036 (AstraZeneca, 2014):

Experiments:
[1] = Inhibition of human BCL-xL overexpressed in mouse FDC-P1 cells assessed as cell viability after 24 hrs by Cell Titer Glo assay
[2] = Inhibition of human BCL-2 overexpressed in mouse FDC-P1 cells assessed as cell viability after 24 hrs by Cell Titer Glo assay

Row | Structure (SMILES) | IC50 [1] [µM] | IC50 [2] [µM]
1 | N#CC1(Cc2ccccc2-c2ccc(Cl)cc2)CCN(c2ccc(C(=O)NS(=O)(=O)c3ccc(N[C@H](CCN4CCOCC4)CSc4ccccc4)c(S(=O)(=O)C(F)(F)F)c3)cc2)CC1 | 2.82 | 0.545
2 | O=C(NS(=O)(=O)c1ccc(N[C@H](CCN2CCOCC2)CSc2ccccc2)c(S(=O)(=O)C(F)(F)F)c1)c1ccc(N2CCN(Cc3ccccc3-c3ccc(Cl)cc3)CC2)cc1 | 0.064 | 0.014
3 | O=C(NS(=O)(=O)c1ccc(N[C@H](CCN2CCOCC2)CSc2ccccc2)c(S(=O)(=O)C(F)(F)F)c1)c1cnc(N2CCN(Cc3ccccc3-c3ccc(Cl)cc3)CC2)nc1 | 2.09 | 0.34
4 | CN(C)CCOc1cccc(-c2ccc(Cl)cc2)c1CN1CCN(c2ccc(C(=O)NS(=O)(=O)c3ccc(N[C@H](CCN4CCOCC4)CSc4ccccc4)c(S(=O)(=O)C(F)(F)F)c3)cc2)CC1 | 0.033 | 0.004
5 | O=C(NS(=O)(=O)c1ccc(N[C@H](CCN2CCOCC2)CSc2ccccc2)c(S(=O)(=O)C(F)(F)F)c1)c1ccc(N2CCC([S@@+]([O-])c3ccccc3-c3ccc(Cl)cc3)CC2)cc1 | 1.72 | 0.434
6 | CN(C)C(=O)COc1ccc(-c2ccc(Cl)cc2)c(CN2CCN(c3ccc(C(=O)NS(=O)(=O)c4ccc(N[C@H](CCN5CCOCC5)CSc5ccccc5)c(S(=O)(=O)C(F)(F)F)c4)cc3)CC2)c1 | 2.09 | 0.187
7 | CN(C)CCOc1ccc(-c2ccc(Cl)cc2)c(CN2CCN(c3ccc(C(=O)NS(=O)(=O)c4ccc(N[C@H](CCN5CCOCC5)CSc5ccccc5)c(S(=O)(=O)C(F)(F)F)c4)cc3)CC2)c1 | 0.138 | 0.022
8 | CN(C)C(=O)COc1cccc(-c2ccc(Cl)cc2)c1CN1CCN(c2ccc(C(=O)NS(=O)(=O)c3ccc(N[C@H](CCN4CCOCC4)CSc4ccccc4)c(S(=O)(=O)C(F)(F)F)c3)cc2)CC1 | 0.226 | 0.045
